Assay results from ChEMBL document CHEMBL1671689, “Activity of ceftaroline against recent emerging serotypes of Streptococcus pneumoniae in the United States” (2010).

Columns and labels:
Format in all cases: functional
Streptococcus pneumoniae [1] = assay: Antimicrobial activity against Streptococcus pneumoniae serotype 7F assessed as percent susceptible isolates by broth microdilution method in presence of beta-lactamase inhibitor clavulanic acid
Streptococcus pneumoniae [2] = assay: Antimicrobial activity against Streptococcus pneumoniae serotype 6C by broth microdilution method in presence of beta-lactamase inhibitor clavulanic acid
Streptococcus pneumoniae [3] = assay: Antimicrobial activity against Streptococcus pneumoniae serotype 19A by broth microdilution method in presence of beta-lactamase inhibitor clavulanic acid
Streptococcus pneumoniae [4] = assay: Antimicrobial activity against multiple drug resistant Streptococcus pneumoniae serotype 19A assessed as percent susceptible isolates by broth microdilution method in presence of beta-lactamase inhibitor clavulanic acid
Streptococcus pneumoniae [5] = assay: Antimicrobial activity against Streptococcus pneumoniae serotype 7F by broth microdilution method in presence of beta-lactamase inhibitor clavulanic acid
Streptococcus pneumoniae [6] = assay: Antimicrobial activity against Streptococcus pneumoniae serotype 19F assessed as percent susceptible isolates by broth microdilution method in presence of beta-lactamase inhibitor clavulanic acid
Streptococcus pneumoniae [7] = assay: Antimicrobial activity against Streptococcus pneumoniae serotype 6C assessed as percent susceptible isolates by broth microdilution method in presence of beta-lactamase inhibitor clavulanic acid
Streptococcus pneumoniae [8] = assay: Antimicrobial activity against Streptococcus pneumoniae serotype 23B assessed as percent susceptible isolates by broth microdilution method in presence of beta-lactamase inhibitor clavulanic acid
Streptococcus pneumoniae [9] = assay: Antimicrobial activity against Streptococcus pneumoniae serotype 22F assessed as percent susceptible isolates by broth microdilution method in presence of beta-lactamase inhibitor clavulanic acid
Streptococcus pneumoniae [10] = assay: Antimicrobial activity against Streptococcus pneumoniae serotype 35B assessed as percent susceptible isolates by broth microdilution method in presence of beta-lactamase inhibitor clavulanic acid
Streptococcus pneumoniae [11] = assay: Antimicrobial activity against Streptococcus pneumoniae serotype 15A assessed as percent susceptible isolates by broth microdilution method
Streptococcus pneumoniae [12] = assay: Antimicrobial activity against Streptococcus pneumoniae serotype 3 assessed as percent susceptible isolates by broth microdilution method in presence of beta-lactamase inhibitor clavulanic acid
Streptococcus pneumoniae [13] = assay: Antimicrobial activity against Streptococcus pneumoniae serotype 11A assessed as percent susceptible isolates by broth microdilution method in presence of beta-lactamase inhibitor clavulanic acid
Streptococcus pneumoniae [14] = assay: Antimicrobial activity against Streptococcus pneumoniae serotype 3 by broth microdilution method in presence of beta-lactamase inhibitor clavulanic acid
Streptococcus pneumoniae [15] = assay: Antimicrobial activity against Streptococcus pneumoniae serotype 23A assessed as percent susceptible isolates by broth microdilution method in presence of beta-lactamase inhibitor clavulanic acid
Streptococcus pneumoniae [16] = assay: Antimicrobial activity against Streptococcus pneumoniae serotype 19A assessed as percent susceptible isolates by broth microdilution method in presence of beta-lactamase inhibitor clavulanic acid
Streptococcus pneumoniae [17] = assay: Antimicrobial activity against Streptococcus pneumoniae serotype 35B by broth microdilution method in presence of beta-lactamase inhibitor clavulanic acid
Streptococcus pneumoniae [18] = assay: Antimicrobial activity against multiple drug resistant Streptococcus pneumoniae serotype 19F assessed as percent susceptible isolates by broth microdilution method in presence of beta-lactamase inhibitor clavulanic acid
Streptococcus pneumoniae [19] = assay: Antimicrobial activity against multiple drug resistant Streptococcus pneumoniae serotype 6B assessed as percent susceptible isolates by broth microdilution method in presence of beta-lactamase inhibitor clavulanic acid
Streptococcus pneumoniae [20] = assay: Antimicrobial activity against Streptococcus pneumoniae serotype 11A by broth microdilution method in presence of beta-lactamase inhibitor clavulanic acid
Streptococcus pneumoniae [21] = assay: Antimicrobial activity against multiple drug resistant Streptococcus pneumoniae serotype 19A by broth microdilution method in presence of beta-lactamase inhibitor clavulanic acid
Streptococcus pneumoniae [22] = assay: Antimicrobial activity against multiple drug resistant Streptococcus pneumoniae serotype 6B by broth microdilution method in presence of beta-lactamase inhibitor clavulanic acid
Streptococcus pneumoniae [23] = assay: Antimicrobial activity against multiple drug resistant Streptococcus pneumoniae serotype 19F by broth microdilution method in presence of beta-lactamase inhibitor clavulanic acid
Streptococcus pneumoniae [24] = assay: Antimicrobial activity against Streptococcus pneumoniae serotype 15A assessed as percent susceptible isolates by broth microdilution method in presence of beta-lactamase inhibitor clavulanic acid
Streptococcus pneumoniae [25] = assay: Antimicrobial activity against Streptococcus pneumoniae serotype 35B by broth microdilution method
Streptococcus pneumoniae [26] = assay: Antimicrobial activity against multiple drug resistant Streptococcus pneumoniae serotype 19A by broth microdilution method
Streptococcus pneumoniae [27] = assay: Antimicrobial activity against multiple drug resistant Streptococcus pneumoniae serotype 19A assessed as percent susceptible isolates by broth microdilution method
Streptococcus pneumoniae [28] = assay: Antimicrobial activity against Streptococcus pneumoniae serotype 19F assessed as percent susceptible isolates by broth microdilution method
Streptococcus pneumoniae [29] = assay: Antimicrobial activity against Streptococcus pneumoniae serotype 22F assessed as percent susceptible isolates by broth microdilution method
Streptococcus pneumoniae [30] = assay: Antimicrobial activity against Streptococcus pneumoniae serotype 3 by broth microdilution method
Streptococcus pneumoniae [31] = assay: Antimicrobial activity against multiple drug resistant Streptococcus pneumoniae serotype 19F by broth microdilution method
Streptococcus pneumoniae [32] = assay: Antimicrobial activity against Streptococcus pneumoniae serotype 19A assessed as percent susceptible isolates by broth microdilution method
Streptococcus pneumoniae [33] = assay: Antimicrobial activity against Streptococcus pneumoniae serotype 35B assessed as percent susceptible isolates by broth microdilution method
Streptococcus pneumoniae [34] = assay: Antimicrobial activity against Streptococcus pneumoniae serotype 23B assessed as percent susceptible isolates by broth microdilution method
Streptococcus pneumoniae [35] = assay: Antimicrobial activity against Streptococcus pneumoniae serotype 7F by broth microdilution method
Streptococcus pneumoniae [36] = assay: Antimicrobial activity against Streptococcus pneumoniae serotype 19A by broth microdilution method
Streptococcus pneumoniae [37] = assay: Antimicrobial activity against Streptococcus pneumoniae serotype 3 assessed as percent susceptible isolates by broth microdilution method
Streptococcus pneumoniae [38] = assay: Antimicrobial activity against Streptococcus pneumoniae serotype 11A assessed as percent susceptible isolates by broth microdilution method
Streptococcus pneumoniae [39] = assay: Antimicrobial activity against Streptococcus pneumoniae serotype 7F assessed as percent susceptible isolates by broth microdilution method
Streptococcus pneumoniae [40] = assay: Antimicrobial activity against multiple drug resistant Streptococcus pneumoniae serotype 6B by broth microdilution method
Streptococcus pneumoniae [41] = assay: Antimicrobial activity against Streptococcus pneumoniae serotype 6C by broth microdilution method
Streptococcus pneumoniae [42] = assay: Antimicrobial activity against Streptococcus pneumoniae serotype 6C assessed as percent susceptible isolates by broth microdilution method
Streptococcus pneumoniae [43] = assay: Antimicrobial activity against multiple drug resistant Streptococcus pneumoniae serotype 6B assessed as percent susceptible isolates by broth microdilution method
Streptococcus pneumoniae [44] = assay: Antimicrobial activity against Streptococcus pneumoniae serotype 23A assessed as percent susceptible isolates by broth microdilution method
Streptococcus pneumoniae [45] = assay: Antimicrobial activity against multiple drug resistant Streptococcus pneumoniae serotype 19F assessed as percent susceptible isolates by broth microdilution method
Streptococcus pneumoniae [46] = assay: Antimicrobial activity against Streptococcus pneumoniae serotype 11A by broth microdilution method

CC1(C)S[C@@H]2[C@H](NC(=O)[C@H](N)c3ccc(O)cc3)C(=O)N2[C@H]1C(=O)O [AMOXICILLIN]
2 µg/mL: MIC50 (Streptococcus pneumoniae [17])
≤ 1 µg/mL: MIC (Streptococcus pneumoniae [2]) | MIC50 (Streptococcus pneumoniae [2]) | MIC90 (Streptococcus pneumoniae [2]) | MIC (Streptococcus pneumoniae [5]) | MIC50 (Streptococcus pneumoniae [5]) | MIC90 (Streptococcus pneumoniae [5]) | MIC (Streptococcus pneumoniae [14]) | MIC50 (Streptococcus pneumoniae [14]) | MIC90 (Streptococcus pneumoniae [14]) | MIC (Streptococcus pneumoniae [20]) | MIC50 (Streptococcus pneumoniae [20]) | MIC90 (Streptococcus pneumoniae [20])
37.9%: Activity (Streptococcus pneumoniae [6])
8 µg/mL: MIC50 (Streptococcus pneumoniae [3]) | MIC90 (Streptococcus pneumoniae [3]) | MIC50 (Streptococcus pneumoniae [21]) | MIC50 (Streptococcus pneumoniae [22]) | MIC50 (Streptococcus pneumoniae [23])
4 µg/mL: MIC90 (Streptococcus pneumoniae [17])
100%: Activity (Streptococcus pneumoniae [7]) | Activity (Streptococcus pneumoniae [8]) | Activity (Streptococcus pneumoniae [9]) | Activity (Streptococcus pneumoniae [11]) | Activity (Streptococcus pneumoniae [12]) | Activity (Streptococcus pneumoniae [15]) | Activity (Streptococcus pneumoniae [24])
45%: Activity (Streptococcus pneumoniae [16])
8.1%: Activity (Streptococcus pneumoniae [4]) | Activity (Streptococcus pneumoniae [18]) | Activity (Streptococcus pneumoniae [19])
16 µg/mL: MIC90 (Streptococcus pneumoniae [21]) | MIC90 (Streptococcus pneumoniae [22]) | MIC90 (Streptococcus pneumoniae [23])
62.7%: Activity (Streptococcus pneumoniae [1]) | Activity (Streptococcus pneumoniae [10])
98%: Activity (Streptococcus pneumoniae [13])

C[C@H]1COc2c(N3CCN(C)CC3)c(F)cc3c(=O)c(C(=O)O)cn1c23.C[C@H]1COc2c(N3CCN(C)CC3)c(F)cc3c(=O)c(C(=O)O)cn1c23.O [LEVOFLOXACIN]
1 µg/mL: MIC50 (Streptococcus pneumoniae [25]) | MIC90 (Streptococcus pneumoniae [25]) | MIC50 (Streptococcus pneumoniae [26]) | MIC90 (Streptococcus pneumoniae [26]) | MIC50 (Streptococcus pneumoniae [30]) | MIC90 (Streptococcus pneumoniae [30]) | MIC50 (Streptococcus pneumoniae [31]) | MIC90 (Streptococcus pneumoniae [31]) | MIC50 (Streptococcus pneumoniae [35]) | MIC90 (Streptococcus pneumoniae [35]) | MIC50 (Streptococcus pneumoniae [36]) | MIC90 (Streptococcus pneumoniae [36]) | MIC50 (Streptococcus pneumoniae [40]) | MIC90 (Streptococcus pneumoniae [40]) | MIC50 (Streptococcus pneumoniae [41]) | MIC90 (Streptococcus pneumoniae [41]) | MIC50 (Streptococcus pneumoniae [46])
98.3%: Activity (Streptococcus pneumoniae [33]) | Activity (Streptococcus pneumoniae [39])
97%: Activity (Streptococcus pneumoniae [34])
99.2%: Activity (Streptococcus pneumoniae [27]) | Activity (Streptococcus pneumoniae [43]) | Activity (Streptococcus pneumoniae [45])
2 µg/mL: MIC90 (Streptococcus pneumoniae [46])
96.6%: Activity (Streptococcus pneumoniae [28])
100%: Activity (Streptococcus pneumoniae [29]) | Activity (Streptococcus pneumoniae [32]) | Activity (Streptococcus pneumoniae [11]) | Activity (Streptococcus pneumoniae [37]) | Activity (Streptococcus pneumoniae [38]) | Activity (Streptococcus pneumoniae [42]) | Activity (Streptococcus pneumoniae [44])
